Broadly, the IC50 is the concentration at which inhibition is half-maximal. A word on the inhibition: it is how much of the control response was suppressed.

Where a name gives a salt, the structure may show the parent alone.

The target in one experiment is T1, rat NaPi-2b (Rattus norvegicus, UniProt Q9JJ09).
T1 construct: expressed in transfected cells; host or cells: Xenopus oocytes injected with cRNA
T1 sequence (Q9JJ09 1-695): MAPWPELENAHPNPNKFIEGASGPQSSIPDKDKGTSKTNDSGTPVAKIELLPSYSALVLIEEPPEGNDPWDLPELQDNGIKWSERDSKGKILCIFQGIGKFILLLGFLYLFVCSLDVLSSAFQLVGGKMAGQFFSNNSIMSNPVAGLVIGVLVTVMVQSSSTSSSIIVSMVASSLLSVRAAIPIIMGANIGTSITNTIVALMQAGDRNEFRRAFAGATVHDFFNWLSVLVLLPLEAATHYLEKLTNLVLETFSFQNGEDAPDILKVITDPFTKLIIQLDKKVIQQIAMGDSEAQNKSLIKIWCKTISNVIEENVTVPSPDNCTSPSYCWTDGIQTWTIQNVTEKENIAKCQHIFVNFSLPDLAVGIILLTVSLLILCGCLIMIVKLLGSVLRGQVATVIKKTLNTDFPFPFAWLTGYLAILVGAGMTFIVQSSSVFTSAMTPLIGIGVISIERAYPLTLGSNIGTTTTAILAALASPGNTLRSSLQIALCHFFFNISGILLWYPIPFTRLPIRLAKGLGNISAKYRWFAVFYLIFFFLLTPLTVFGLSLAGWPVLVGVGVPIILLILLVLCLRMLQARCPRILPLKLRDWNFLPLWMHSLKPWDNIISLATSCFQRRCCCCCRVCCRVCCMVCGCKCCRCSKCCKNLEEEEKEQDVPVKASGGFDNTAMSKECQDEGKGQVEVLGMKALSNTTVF
As to the kind of experiment: Sodium-dependent phosphate uptake of Xenopus oocytes which expressed NaPi-2b (32P). The experiment is classed as cell-based. The following applies: Xenopus oocytes expressing rat NaPi-2b, 32P radioactive phosphorus; read-out: IC50 (phosphate uptake inhibitory activity). In outline: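 Oocytes injected with rat NaPi-2b cRNA, cultured 2 d, then 32P uptake measured with compound. Values: % inhibition at 300 and 100 μM, both from one inhibition curve.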
For `Cc1ccc(/C=N/NC(=O)c2cc(Br)ccc2NC(=O)c2ccc(CSc3ccncc3)cc2)cc1C` [Compound 259, N-[4-Bromo-2-(3,4-dimethyl-benzylidene-hydrazinocarbonyl)-phenyl]-4-(pyridin-4-ylsulfanylmethyl)-benzamide], the 50% inhibitory concentration (IC50) is less than 3 µM.
As for `Cc1ccc(/C=N/NC(=O)c2cc(Cl)ccc2NC(=O)c2cccc(CN(CCO)CCO)c2)cc1C` [Compound 406, 3-{[Bis-(2-hydroxy-ethyl)-amino]-methyl}-N-[4-chloro-2-(3,4-dimethyl-benzylidene-hydrazinocarbonyl)-phenyl]-benzamide], the IC50 came out at 0.88 µM.
The same measure, in the same setting: the result for `CCN(CC)CCN(C)Cc1cccc(C(=O)Nc2ccc(N3CCCC3)cc2C(=O)N/N=C/c2ccc(C)c(C)c2)c1` [Compound 916, 3-{[(2-Diethylamino-ethyl)-methyl-amino]-methyl}-N-[2-(3,4-dimethyl-benzylidene-hydrazinocarbonyl)-4-pyrrolidin-1-yl-phenyl]-benzamide] reads 5.22 µM; that for `COc1ccc(NC(=O)c2ccc(OC)c(OC)c2)c(C(=O)N/N=C/c2cccc(C)c2)c1` [Compound 143, 3,4-Dimethoxy-N-[4-methoxy-2-(3-methyl-benzylidene-hydrazinocarbonyl)-phenyl]-benzamide], 5.88 µM; that for `CC(O)CN(Cc1ccc(C(=O)Nc2ccc(Br)cc2C(=O)N/N=C/c2ccc(Cl)c(C(F)(F)F)c2)cc1)CC(C)O` (stereo not drawn) [Compound 721, 4-{[Bis-(2-hydroxy-propyl)-amino]-methyl}-N-[4-bromo-2-(4-chloro-3-trifluoromethyl-benzylidene-hydrazinocarbonyl)-phenyl]-benzamide], 22.3 µM.
On the same count and under the same terms, the result for `O=C(Nc1ccc(Br)cc1C(=O)N/N=C/c1cccc(F)c1)c1cccnc1` [Compound 172, N-[4-Bromo-2-(3-fluoro-benzylidene-hydrazinocarbonyl)-phenyl]-nicotinamide] reads 2.74 µM.
On the same count and under the same terms, the result for `Cc1ccc(/C=N/NC(=O)c2cc(Br)ccc2NC(=O)c2ccco2)cc1` [Compound 154, Furan-2-carboxylic acid [4-bromo-2-(4-methyl-benzylidene-hydrazinocarbonyl)-phenyl]-amide] reads 2.37 µM.
Turning to `COc1ccc(/C=N/NC(=O)c2c(NC(=O)c3cccc(CN(CC(C)O)CC(C)O)c3)sc3c2CCC3)cc1` (stereo not drawn) [Compound 809, 3-{[Bis-(2-hydroxy-propyl)-amino]-methyl}-N-[3-(4-methoxy-benzylidene-hydrazinocarbonyl)-5,6-dihydro-4H-cyclopenta[b]thiophen-2-yl]-benzamide], the IC50 is 5.22 µM.
For `CCN(CCO)Cc1cccc(C(=O)Nc2ccc(Cl)cc2C(=O)N/N=C/c2ccc(O)cc2)c1` [Compound 431, N-[4-Chloro-2-(4-hydroxy-benzylidene-hydrazinocarbonyl)-phenyl]-3-{[ethyl-(2-hydroxy-ethyl)-amino]-methyl}-benzamide], the IC50 amounted to 5.57 µM.
Regarding `Cc1ccc(/C=N/NC(=O)c2c(C)csc2NC(=O)c2cccc(CSc3nc[nH]n3)c2)cc1` [Compound 552, N-[4-Methyl-3-(4-methyl-benzylidene-hydrazinocarbonyl)-thiophen-2-yl]-3-(1H-[1,2,4]triazol-3-ylsulfanylmethyl)-benzamide], the IC50 was determined as 2.63 µM.
Take `O=C(Nc1ccc(Br)cc1C(=O)N/N=C/c1ccc(Cl)c(C(F)(F)F)c1)c1cccc(CSc2ccncc2)c1` [Compound 200, N-[4-Bromo-2-(4-chloro-3-trifluoromethyl-benzylidene-hydrazinocarbonyl)-phenyl]-3-(pyridin-4-ylsulfanylmethyl)-benzamide]: the IC50 was 0.39 µM.
Take `CCN(CC)CCN(CCN(CC)CC)Cc1cccc(C(=O)Nc2sc3c(c2C(=O)N/N=C/c2ccc(Cl)c(C(F)(F)F)c2)CCCC3)c1` [Compound 855, 3-{[Bis-(2-diethylamino-ethyl)-amino]-methyl}-N-[3-(4-chloro-3-trifluoromethyl-benzylidene-hydrazinocarbonyl)-4,5,6,7-tetrahydro-benzo[b]thiophen-2-yl]-benzamide; hydrochloride]: the IC50 came to 1.75 µM.
The same measure, in the same setting: then `O=C(Nc1ccccc1C(=O)N/N=C/c1ccc(F)cc1)c1ccncc1` [Compound 135, N-[2-(4-Fluoro-benzylidene-hydrazinocarbonyl)-phenyl]-isonicotinamide], with 3.74 µM.
Same read-out and setting: then `Cc1ccccc1/C=N/NC(=O)c1ccccc1NC(=O)c1ccccc1` [Compound 229, N-[2-(2-Methyl-benzylidene-hydrazinocarbonyl)-phenyl]-benzamide], with 6.32 µM.
Still for that read-out and setting: the result for `COc1cccc(/C=N/NC(=O)c2cc(Cl)ccc2NC(=O)c2cccc(CN(C)CCO)c2)c1` [Compound 400, N-[4-Chloro-2-(3-methoxy-benzylidene-hydrazinocarbonyl)-phenyl]-3-{[(2-hydroxy-ethyl)-methyl-amino]-methyl}-benzamide] reads less than 0.3 µM.
In the case of `CCN(CC)CCN(C)Cc1ccc(C(=O)Nc2ccc(Br)cc2C(=O)NN=Cc2ccc(OC)cc2)cc1` [Compound 290, N-[4-Bromo-2-(4-methoxy-benzylidene-hydrazinocarbonyl)-phenyl]-4-{[(2-diethylamino-ethyl)-methyl-amino]-methyl}-benzamide], the IC50 is 3.25 µM.
As to `CCOc1cc(/C=N/NC(=O)c2ccccc2NC(=O)c2ccc(OC)c(OC)c2)ccc1O` [Compound 37, N-[2-(3-Ethoxy-4-hydroxy-benzylidene-hydrazinocarbonyl)-phenyl]-3,4-dimethoxy-benzamide], the IC50 was 13.5 µM.
Regarding `O=C(Nc1ccc(I)cc1C(=O)N/N=C/c1ccc(F)cc1)c1cccc(CN2CCC(N3CCCCC3)CC2)c1` [Compound 483, 3-[1,4′]Bipiperidinyl-1′-ylmethyl-N-[2-(4-fluoro-benzylidene-hydrazinocarbonyl)-4-iodo-phenyl]-benzamide], the IC50 is less than 3 µM.
The same measure, in the same setting: the result for `O=C(Nc1ccc(Br)cc1C(=O)N/N=C/c1ccc(Cl)c(C(F)(F)F)c1)c1cccnc1` [Compound 177, N-[4-Bromo-2-(4-chloro-3-trifluoromethyl-benzylidene-hydrazinocarbonyl)-phenyl]-nicotinamide] reads 26 µM.
Regarding `Cc1cccc(/C=N/NC(=O)c2cc(Br)ccc2NC(=O)c2ccc(CN3CCN(CC(=O)N4CCOCC4)CC3)cc2)c1` [Compound 729, N-[4-Bromo-2-(3-methyl-benzylidene-hydrazinocarbonyl)-phenyl]-4-[4-(2-morpholin-4-yl-2-oxo-ethyl)-piperazin-1-ylmethyl]-benzamide], the IC50 came to 27.3 µM.
The same measure, in the same setting: the result for `O=C(Nc1ccc(Br)cc1C(=O)N/N=C/c1ccc(Cl)c(C(F)(F)F)c1)c1ccc(CN2CCC(CCO)CC2)cc1` [Compound 745, N-[4-Bromo-2-(4-chloro-3-trifluoromethyl-benzylidene-hydrazinocarbonyl)-phenyl]-4-[4-(2-hydroxy-ethyl)-piperidin-1-ylmethyl]-benzamide] reads 6.12 µM; that for `CCN(CC)CCN(C)Cc1cccc(C(=O)Nc2ccc(N3CCOCC3)cc2C(=O)N/N=C/c2ccc(C)c(C)c2)c1` [Compound 1074, 3-{[(2-Diethylamino-ethyl)-methyl-amino]-methyl}-N-[2-(3,4-dimethyl-benzylidene-hydrazinocarbonyl)-4-morpholin-4-yl-phenyl]-benzamide], 1.54 µM; that for `COc1ccc(NC(=O)c2ccc(OC)c(OC)c2)c(C(=O)N/N=C/c2ccc(C)cc2)c1` [Compound 144, 3,4-Dimethoxy-N-[4-methoxy-2-(4-methyl-benzylidene-hydrazinocarbonyl)-phenyl]-benzamide], 5.02 µM.
On the same count and under the same terms, the result for `Cc1ccc(/C=N/NC(=O)c2cc(Cl)ccc2NC(=O)c2cccc(CN(C)CCO)c2)cc1C` [Compound 398, N-[4-Chloro-2-(3,4-dimethyl-benzylidene-hydrazinocarbonyl)-phenyl]-3-{[(2-hydroxy-ethyl)-methyl-amino]-methyl}-benzamide] reads less than 0.3 µM.
Still for that read-out and setting: then `CCN(CC)CCN(C)Cc1cccc(C(=O)Nc2ccc(OCC3CCCCC3)cc2C(=O)N/N=C/c2ccc(C)cc2)c1` [Compound 1047, N-[4-Cyclohexylmethoxy-2-(4-methyl-benzylidene-hydrazinocarbonyl)-phenyl]-3-{[(2-diethylamino-ethyl)-methyl-amino]-methyl}-benzamide], with less than 1 µM.

The experiment is the same for the next values; noted with them: phosphate uptake, oocytes expressing rat NaPi-2b; 300 μM, determined from inhibition curve.
For the compound `CC(O)CN(Cc1cccc(C(=O)Nc2ncccc2C(=O)N/N=C/c2cccc(F)c2)c1)CC(C)O` (stereo not drawn) [Compound 964, 3-{[Bis-(2-hydroxy-propyl)-amino]-methyl}-N-[3-(3-fluoro-benzylidene-hydrazinocarbonyl)-pyridin-2-yl]-benzamide], 300 µM produced 67.5% inhibition.
For `CC(O)CN(Cc1cccc(C(=O)Nc2ccsc2C(=O)N/N=C/c2cccc(F)c2)c1)CC(C)O` (stereo not drawn) [Compound 992, 3-{[Bis-(2-hydroxy-propyl)-amino]-methyl}-N-[2-(3-fluoro-benzylidene-hydrazinocarbonyl)-thiophen-3-yl]-benzamide], the inhibition at 300 µM stood at 31.9%.
